*1 amine or outer side, *2 acyl side, *3 side chain or, on linkers, in order; H or OH if unused. Where a SMILES comes first, the peptide text is derived from it. Side-chain parts run from the residue outwards. [ ]: non-standard residue; d: D form. The star is where a group is joined. Isobutyryl(2-(3-CN-5-F-Ph)) = CC(C)(C(=O)*)c1cc(F)cc(C#N)c1; C20 diacid = O=C(O)CCCCCCCCCCCCCCCCCCC(=O)*; γGlu = O=C(O)[C@H](CCC(=O)[*:2])N[*:1]; X3 = CC(C)(C(=O)*)c1ccc(Cl)cc1; AEEA = NCCOCCOCC(=O)O; Aib = CC(C)(N)C(=O)O; βAla = NCCC(=O)O Some results are limits rather than exact numbers.

Common to all, as to format: cell-based
Assay [1] addresses T1, GIP receptor (Homo sapiens, UniProt P48546).
T1 sequence (P48546 22-466): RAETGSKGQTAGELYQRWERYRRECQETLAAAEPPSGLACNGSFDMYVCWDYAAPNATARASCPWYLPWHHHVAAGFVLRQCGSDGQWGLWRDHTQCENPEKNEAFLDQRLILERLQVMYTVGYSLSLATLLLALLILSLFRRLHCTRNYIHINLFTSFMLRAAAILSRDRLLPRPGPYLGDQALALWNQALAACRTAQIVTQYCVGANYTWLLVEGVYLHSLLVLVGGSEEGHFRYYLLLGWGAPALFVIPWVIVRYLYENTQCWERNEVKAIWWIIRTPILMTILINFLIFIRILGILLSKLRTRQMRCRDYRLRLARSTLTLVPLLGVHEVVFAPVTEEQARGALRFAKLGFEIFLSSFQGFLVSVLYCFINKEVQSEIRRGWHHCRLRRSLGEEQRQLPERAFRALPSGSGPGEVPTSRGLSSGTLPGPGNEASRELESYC
Put plainly: HitHunter cAMP assay, GIP receptor. To be noted: for EC50: CHO cells stably expressing GIP receptor, cAMP accumulation, 30 min, read-out: EC50 GIP-1R; for Emax: CHO cells, cAMP, normalized to maximum signal from GIP (high) and DMSO (low), read-out: Emax GIP-1R.

Assay [2] addresses T1, GIP receptor. Description: PathHunter β-arrestin assay, GIP receptor. The arrangement: host or cells: PathHunter CHO-K1 GIPR β-Arrestin Cell Line. The conditions noted are these: β-arrestin-2 recruitment, PathHunter CHO-K1 GIPR β-Arrestin Cell Line, 90 min at 37° C.; normalized to GIP; read-out: GIPR β Arrestin EC50.
Assay [3] deals with T2, GLP-1 receptor (Homo sapiens, UniProt P43220). Put plainly: PathHunter β-arrestin assay, GLP-1 receptor. Further details: host or cells: PathHunter CHO-K1 GLP1R β-Arrestin Cell Line. The conditions noted are these: β-arrestin-2 recruitment, PathHunter CHO-K1 GLP1R β-Arrestin Cell Line, 90 min at 37° C.; normalized to GLP-1; read-out: GLP-1R β Arrestin EC50.
T2 sequence (P43220 24-463): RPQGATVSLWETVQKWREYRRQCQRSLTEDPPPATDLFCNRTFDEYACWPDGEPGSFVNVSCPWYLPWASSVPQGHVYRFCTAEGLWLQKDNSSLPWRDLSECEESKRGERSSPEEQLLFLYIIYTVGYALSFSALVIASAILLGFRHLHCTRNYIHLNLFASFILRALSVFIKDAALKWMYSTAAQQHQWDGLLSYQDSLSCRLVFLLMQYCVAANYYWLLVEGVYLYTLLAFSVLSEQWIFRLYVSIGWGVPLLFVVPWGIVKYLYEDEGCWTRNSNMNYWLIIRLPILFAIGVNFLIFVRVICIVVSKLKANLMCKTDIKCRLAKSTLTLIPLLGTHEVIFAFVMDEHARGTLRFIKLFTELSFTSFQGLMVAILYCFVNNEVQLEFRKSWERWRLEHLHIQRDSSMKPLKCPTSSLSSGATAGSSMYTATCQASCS
The target in assay [4] is T2, GLP-1 receptor. Put plainly: HitHunter cAMP assay, GLP-1 receptor. To be noted: for EC50: CHO cells stably expressing human GLP-1 receptor, cAMP accumulation, 30 min, read-out: EC50 GLP-1R; for Emax: CHO cells, cAMP, normalized to maximum signal from GLP-1 (high) and DMSO (low), read-out: Emax GLP-1R.
Method: CAMP accumulation was measured in Chinese hamster ovary (CHO) cells stably expressing the human GLP-1 receptor or GIP receptor using the HitHunter CAMP Assay for Small Molecules Kit (Eurofins). Briefly, cells were grown in Ham's F12 Nutrient Mix with 10% FBS and lifted with Cell dissociation buffer, Enzyme free, PBS based (ThermoFisher). Cells were pelleted and resuspended in Hank's buffered saline solution with 10 mM Hepes and 625 μM 3-isobutyl-1-methylxanthine. The antibody reagent was then added to cells at a 1:2 ratio and 5 μL of mixture was seeded in 384-well small volume white assay plates, at 10,000 cells/well. Cells were then treated with 50 nl compound in DMSO using an ECHO 550 acoustic dispenser (Labcyte) in a 20-point dose response format in triplicate for 30 min. Cells were the lysed and detection reagents added according to the manufacturer's protocol. After overnight incubation, luminescence was measured using a Perkin Elmer Envision plate reader. Raw data was normalized to the maximum signal from GLP-1 or GIP (high) and DMSO (low). Dose response curves were analyzed using GraphPad Prism 9.0.

Turning to `CC[C@H](C)[C@H](NC(=O)[C@H](CC(C)C)NC(=O)[C@H](Cc1c[nH]c2ccccc12)NC(=O)[C@H](CC(N)=O)NC(=O)[C@@H](NC(=O)[C@H](Cc1ccccc1)NC(=O)[C@H](C)NC(=O)[C@H](CCCCNC(=O)COCCOCCNC(=O)COCCOCCNC(=O)CC[C@H](NC(=O)CCCCCCCCCCCCCCCCCCC(=O)O)C(=O)O)NC(=O)[C@H](CCC(N)=O)NC(=O)[C@H](C)NC(=O)[C@@H](NC(=O)[C@H](CCCCN)NC(=O)[C@H](CC(=O)O)NC(=O)[C@H](CC(C)C)NC(=O)C(C)(C)NC(=O)[C@@H](NC(=O)[C@H](CO)NC(=O)[C@H](Cc1ccc(O)cc1)NC(=O)[C@H](CC(=O)O)NC(=O)[C@H](CO)NC(=O)[C@@H](NC(=O)[C@H](Cc1ccccc1)NC(=O)[C@@H](NC(=O)CNC(=O)[C@H](CCC(=O)O)NC(=O)CCNC(=O)C(C)(C)c1cc(F)cc(C#N)c1)[C@@H](C)O)[C@@H](C)O)[C@@H](C)CC)[C@@H](C)CC)C(C)C)C(=O)N[C@@H](C)C(=O)NCC(=O)NCC(=O)N1CCC[C@H]1C(=O)N[C@@H](CO)C(=O)N[C@@H](CO)C(=O)NCC(=O)N[C@@H](C)C(=O)N1CCC[C@H]1C(=O)N1CCC[C@H]1C(=O)N1CCC[C@H]1C(=O)N[C@@H](CO)C(N)=O` [Compound 182] ({Isobutyryl(2-(3-CN-5-F-Ph))-βAla}-EGTFTSDYSI[Aib]LDKIAQK([AEEA-AEEA-γGlu-C20 diacid])AFVNWLIAGGPSSGAPPPS-NH2), the EC50 on GIP receptor [1] is 10 to 100 nM; on GIP receptor [2] it was less than 1000 nM; on GLP-1 receptor [3], greater than 1000 nM; on GLP-1 receptor [4] it was 0.1 to 1 nM. The Emax on GIP receptor [1] worked out at 98%; on GLP-1 receptor [4], 96%.

Regarding `CC[C@H](C)[C@H](NC(=O)[C@H](CC(C)C)NC(=O)[C@H](Cc1c[nH]c2ccccc12)NC(=O)[C@H](CCC(N)=O)NC(=O)[C@@H](NC(=O)[C@H](Cc1ccccc1)NC(=O)[C@H](C)NC(=O)[C@H](CCCCNC(=O)COCCOCCNC(=O)COCCOCCNC(=O)CC[C@H](NC(=O)CCCCCCCCCCCCCCCCCCC(=O)O)C(=O)O)NC(=O)[C@H](C)NC(=O)[C@H](C)NC(=O)[C@@H](NC(=O)[C@H](CCCCN)NC(=O)[C@H](CC(=O)O)NC(=O)[C@H](CC(C)C)NC(=O)C(C)(C)NC(=O)[C@@H](NC(=O)[C@H](CO)NC(=O)[C@H](Cc1ccc(O)cc1)NC(=O)[C@H](CC(=O)O)NC(=O)[C@H](CO)NC(=O)[C@@H](NC(=O)[C@H](Cc1ccccc1)NC(=O)[C@@H](NC(=O)CNC(=O)[C@H](CCC(=O)O)NC(=O)CCNC(=O)C(C)(C)c1cc(F)cc(C#N)c1)[C@@H](C)O)[C@@H](C)O)[C@@H](C)CC)[C@@H](C)CC)C(C)C)C(=O)N[C@@H](C)C(=O)NCC(=O)NCC(=O)N1CCC[C@H]1C(=O)N[C@@H](CO)C(=O)N[C@@H](CO)C(=O)NCC(=O)N[C@@H](C)C(=O)N1CCC[C@H]1C(=O)N1CCC[C@H]1C(=O)N1CCC[C@H]1C(=O)N[C@@H](CO)C(N)=O` [Compound 183] ({Isobutyryl(2-(3-CN-5-F-Ph))-βAla}-EGTFTSDYSI[Aib]LDKIAAK([AEEA-AEEA-γGlu-C20 diacid])AFVQWLIAGGPSSGAPPPS-NH2), the EC50 was 10 to 100 nM at GIP receptor [1], greater than 1000 nM on GIP receptor [2], greater than 1000 nM at GLP-1 receptor [3] and 0.1 to 1 nM on GLP-1 receptor [4]. In addition, the Emax on GIP receptor [1] worked out at 95%; on GLP-1 receptor [4], 96%.

In the case of `CC[C@H](C)[C@H](NC(=O)[C@H](CO)NC(=O)[C@H](Cc1ccc(O)cc1)NC(=O)[C@H](CC(=O)O)NC(=O)[C@H](CO)NC(=O)[C@@H](NC(=O)[C@H](Cc1ccccc1)NC(=O)[C@@H](NC(=O)CNC(=O)[C@H](CCC(=O)O)NC(=O)CCNC(=O)C(C)(C)c1cc(F)cc(C#N)c1)[C@@H](C)O)[C@@H](C)O)C(=O)N[C@@H](Cc1ccc(O)cc1)C(=O)N[C@@H](CC(C)C)C(=O)N[C@@H](CC(=O)O)C(=O)N[C@@H](CCCCN)C(=O)N[C@@H](CCC(N)=O)C(=O)N[C@@H](C)C(=O)N[C@@H](C)C(=O)N[C@@H](CCCCNC(=O)COCCOCCNC(=O)COCCOCCNC(=O)CC[C@H](NC(=O)CCCCCCCCCCCCCCCCCCC(=O)O)C(=O)O)C(=O)N[C@@H](CCC(=O)O)C(=O)N[C@@H](Cc1ccccc1)C(=O)N[C@H](C(=O)N[C@@H](CC(N)=O)C(=O)N[C@@H](Cc1c[nH]c2ccccc12)C(=O)N[C@@H](CC(C)C)C(=O)N[C@@H](CC(C)C)C(=O)N[C@@H](C)C(=O)NCC(=O)NCC(=O)N1CCC[C@H]1C(=O)N[C@@H](CO)C(=O)N[C@@H](CO)C(=O)NCC(=O)N[C@@H](C)C(=O)N1CCC[C@H]1C(=O)N1CCC[C@H]1C(=O)N1CCC[C@H]1C(=O)N[C@@H](CO)C(N)=O)C(C)C` [Compound 184], the EC50 on GIP receptor [1] was 100 to 1000 nM; at GIP receptor [2], greater than 1000 nM; on GLP-1 receptor [3], greater than 1000 nM; on GLP-1 receptor [4], 1 to 10 nM. Besides, the Emax turned out to be 90% on GIP receptor [1] and 99% at GLP-1 receptor [4].

For the compound `CC[C@H](C)[C@H](NC(=O)[C@H](CC(C)C)NC(=O)[C@H](Cc1c[nH]c2ccccc12)NC(=O)[C@H](CCC(N)=O)NC(=O)[C@@H](NC(=O)[C@H](Cc1ccccc1)NC(=O)[C@H](C)NC(=O)[C@H](CCCCNC(=O)COCCOCCNC(=O)COCCOCCNC(=O)CC[C@H](NC(=O)CCCCCCCCCCCCCCCCCCC(=O)O)C(=O)O)NC(=O)[C@H](CCC(N)=O)NC(=O)[C@H](C)NC(=O)[C@@H](NC(=O)[C@H](CCCCN)NC(=O)[C@H](CC(=O)O)NC(=O)[C@H](CC(C)C)NC(=O)C(C)(C)NC(=O)[C@@H](NC(=O)[C@H](CO)NC(=O)[C@H](Cc1ccc(O)cc1)NC(=O)[C@H](CC(=O)O)NC(=O)[C@H](CO)NC(=O)[C@@H](NC(=O)[C@H](Cc1ccccc1)NC(=O)[C@@H](NC(=O)CNC(=O)[C@H](CCC(=O)O)NC(=O)CCNC(=O)C(C)(C)c1ccc(Cl)cc1)[C@@H](C)O)[C@@H](C)O)[C@@H](C)CC)[C@@H](C)CC)C(C)C)C(=O)N[C@@H](C)C(=O)NCC(=O)NCC(=O)N1CCC[C@H]1C(=O)N[C@@H](CO)C(=O)N[C@@H](CO)C(=O)NCC(=O)N[C@@H](C)C(=O)N1CCC[C@H]1C(=O)N1CCC[C@H]1C(=O)N1CCC[C@H]1C(=O)N[C@@H](CO)C(N)=O` [Compound 185] ({X3-βAla}-EGTFTSDYSI[Aib]LDKIAQK([AEEA-AEEA-γGlu-C20 diacid])AFVQWLIAGGPSSGAPPPS-NH2), the EC50 was 10 to 100 nM at GIP receptor [1], greater than 1000 nM at GIP receptor [2], less than 1000 nM on GLP-1 receptor [3] and 0.1 to 1 nM at GLP-1 receptor [4]. Moreover, the Emax on GIP receptor [1] was 95%; at GLP-1 receptor [4], 101%.

The values above are taken from patent publication US12281149B2, “Modulators of G-protein coupled receptors” (priority 2021, dated 2025).
